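Dose response: 5 concentrations. Exposure: 48 h. Format: 96-well plates. Endpoint: linear interpolation; highest concentration if not reached. Here, GI50 denotes the concentration required for 50% inhibition of growth. TGI: total growth inhibition.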
How the values were obtained:
Experiment in all cases: NCI-60 cell line screen, 48 h
SF-539 CNS = tested on: SF-539 CNS
OVCAR-4 ovarian = tested on: OVCAR-4 ovarian
SF-268 CNS = tested on: SF-268 CNS
UO-31 renal = tested on: UO-31 renal
OVCAR-8 ovarian = tested on: OVCAR-8 ovarian
KM12 colon = tested on: KM12 colon
SK-MEL-2 melanoma = tested on: SK-MEL-2 melanoma
MOLT-4 leukemia = tested on: MOLT-4 leukemia
HCT-15 colon = tested on: HCT-15 colon
TK-10 renal = tested on: TK-10 renal

SMILES | TGI (SF-539 CNS) [µM] | TGI (OVCAR-4 ovarian) [µM] | TGI (SF-268 CNS) [µM] | TGI (UO-31 renal) [µM] | TGI (OVCAR-8 ovarian) [µM] | TGI (KM12 colon) [µM] | TGI (SK-MEL-2 melanoma) [µM] | TGI (MOLT-4 leukemia) [µM] | TGI (HCT-15 colon) [µM] | TGI (TK-10 renal) [µM] | GI50 (SF-539 CNS) [µM] | GI50 (OVCAR-8 ovarian) [µM] | GI50 (KM12 colon) [µM] | GI50 (MOLT-4 leukemia) [µM] | GI50 (HCT-15 colon) [µM] | GI50 (OVCAR-4 ovarian) [µM] | GI50 (SF-268 CNS) [µM] | GI50 (TK-10 renal) [µM] | GI50 (SK-MEL-2 melanoma) [µM]
C(=C/c1nc2ccccc2o1)/c1ccc2c(c1)OCO2 | 34.6 | 44.6 | > 100 | 49.5 | > 100 | 26.1 | 36.3 | > 100 | > 100 | – | – | – | – | – | – | – | – | – | –
CN(C)/C=C/C=C(/C=N/S(=O)(=O)C(F)(F)F)C1C=CN(S(=O)(=O)C(F)(F)F)C=C1 | – | 42.9 | > 100 | 89.4 | > 100 | 71.1 | 54.1 | 71 | 57.8 | > 100 | – | – | – | – | – | – | – | – | –
CC1C2(C)OCC(C#N)(C(=N)O2)C1(C#N)C#N (centres undefined) | 57.3 | – | 74.3 | > 100 | 84.2 | > 100 | 33.5 | > 100 | 26.3 | > 100 | – | – | – | – | – | – | – | – | –
COC(=O)C(NC(=O)OC(C)(C)C)P(=O)(OC)OC (centres undefined) | – | > 100 | > 100 | > 100 | > 100 | > 100 | > 100 | > 100 | > 100 | > 100 | – | – | – | – | – | – | – | – | –
COC(=O)C1c2cc3c(c(O)c2C(O)CC1(C)O)C(=O)c1c(O)cc2c(c1C3=O)OC1OC2(C)C(O)C(N(C)C)C1O (centres undefined) | – | > 100 | – | – | > 100 | > 19.9 | > 100 | > 100 | – | – | – | – | – | – | – | – | – | – | –
CCn1c2ccccc2c2cc(Nc3cc(C)[nH]c(=O)n3)ccc21 | > 100 | > 100 | > 100 | > 100 | > 100 | > 100 | > 100 | – | > 100 | > 100 | – | – | – | – | – | – | – | – | –
COc1cc2c3c(cc(Cl)nc3c1OC)C(O)(CC(=O)c1ccccc1)C(=O)N2 (centres undefined) | 5.27 | 5.49 | 13.7 | 26.2 | 32.1 | 31.3 | 30 | – | 50.9 | 32.1 | – | – | – | – | – | – | – | – | –
O=C1C(c2c(O)[nH]c3ccc(S(=O)(=O)NCCO)cc23)=Nc2ccccc21 | – | 14.5 | 51 | > 100 | > 100 | 2.2 | 17.9 | 36.6 | > 100 | 42.4 | – | – | – | – | – | – | – | – | –
CC1OC(=O)C(C(C)C)NC(=O)C(C(C)C)OC(=O)C(C(C)C)NC(=O)C(C)OC(=O)C(C(C)C)NC(=O)C(C(C)C)OC(=O)C(C(C)C)NC(=O)C(C)OC(=O)C(C(C)C)NC(=O)C(C(C)C)OC(=O)C(C(C)C)NC1=O (centres undefined) | 0.328 | – | 5.09 | 0.0541 | 3.46 | – | 0.167 | 0.00858 | 4.53 | – | 0.000484 | < 0.0001 | < 0.0001 | < 0.0001 | 0.000358 | – | – | – | –
CCOc1cc2c(cc1O)C(N)C[C@@H]1[C@@H]2CC[C@]2(C)[C@@H](O)CC[C@@H]12 (some centres undefined) | – | > 100 | > 100 | > 100 | > 100 | > 100 | > 100 | > 100 | > 100 | > 100 | – | – | – | – | – | – | – | – | –
Clc1cc2nnn(C3CCCO3)c2cc1Cl (centres undefined) | > 100 | – | > 100 | – | > 100 | – | > 100 | > 100 | > 100 | > 100 | – | – | – | – | – | – | – | – | –
O=[N+]([O-])/C(C(Cl)=C(Cl)Cl)=C(/Nc1ccccc1)Sc1ccccc1 | 52.3 | 37.3 | 28.2 | 27.5 | 33.6 | 36 | – | 46.7 | 41.6 | 59.8 | – | – | – | – | – | – | – | – | –
COc1ccc(CNc2nc3ccccc3nc2C(=O)O)cc1 | > 100 | – | > 100 | > 100 | > 100 | > 100 | > 100 | – | 60.9 | > 100 | – | – | – | – | – | – | – | – | –
CC(=O)OCC1OC(n2c(-c3ccccc3)c(N=Nc3ccc(C)cc3)c(C)c(C#N)c2=S)C(OC(C)=O)C(OC(C)=O)C1OC(C)=O (centres undefined) | – | 25.1 | 76.6 | – | – | > 100 | 40.9 | 55.2 | 86.6 | 47.6 | – | – | – | – | – | – | – | – | –
O=C(Nc1ccc(Cl)cc1)c1cc(S(=O)(=O)Nc2n[nH]c(=O)n2-c2ccccc2)c(S)cc1Cl | > 100 | > 100 | > 100 | > 100 | > 100 | > 100 | > 100 | > 100 | > 100 | – | – | – | – | – | – | – | – | – | –
CCOC(=O)C(C(=O)COC(C)(C)C)[C@@H]1C=C[C@H](OC(C)=O)C1 (some centres undefined) | > 100 | > 100 | > 100 | > 100 | – | > 100 | > 100 | > 100 | > 100 | – | – | – | – | – | – | – | – | – | –
CN1CCC2(CC1)C(=NC1CCCCC1)NC(=O)N2c1ccccc1 | – | – | > 100 | > 100 | > 100 | > 100 | – | > 100 | > 100 | > 100 | – | – | – | – | – | – | – | – | –
C(#Cc1ccccc1)SC1=C(c2ccccc2)S/C(=C(\SC#Cc2ccccc2)c2ccccc2)S1 | > 100 | > 100 | > 100 | > 100 | > 100 | > 100 | – | > 100 | > 100 | > 100 | – | – | – | – | – | – | – | – | –
COc1ccc2c(c1)CCC/C2=N\NS(=O)(=O)c1c(C)cc(C)cc1C | 41.5 | 92.7 | – | > 100 | 85.3 | 32.9 | > 100 | 66.1 | 95.3 | > 100 | – | – | – | – | – | – | – | – | –
NS(=O)(=O)c1ccc(N=Nc2ccc(O)c(C(=O)O)c2)cc1 | – | > 100 | > 100 | > 100 | > 100 | > 100 | > 100 | > 100 | > 100 | > 100 | – | – | – | – | – | – | – | – | –
COc1ccc(C2=NC(c3ccc(Cl)cc3)C(c3ccc(Cl)cc3)N2C(=O)N2CCNC(=O)C2)c(OC(C)C)c1 (centres undefined) | 4.01 | 4.47 | 3.97 | – | 6.14 | 3.69 | 4.15 | > 10 | 3.86 | 3.39 | 2.02 | 2.46 | 1.84 | 3.39 | 1.91 | 2.16 | 2.11 | 1.93 | 2.08

From PubChem BioAssay (NCI)
